Laboratory results taken from patent US10562893B2, “Benzimidazoles derivatives as Tec kinases family inhibitors” (GB005, Inc., priority 2015, dated 2020).

Key:
[1] = tested on: Jurkat human acute T cell leukemia cells; test: Jurkat IL-2 release assay; type: cell-based; settings: IL-2 release from Jurkat cells stimulated with anti-CD3 and anti-CD28, 48 hours, ELISA
Procedure: Inhibition of cellular ITK was assessed by measuring release of IL-2 following stimulation with anti-CD3 and anti-CD28 antibodies. Individual wells of 96 well tissue culture plates were coated with 50 μL of 10 μg/mL anti-CD3 (OKT3, eBiosciences) for 2 hours at 37° C. Jurkat human acute T cell leukemia cells (ATCC) were plated in 96-well plates at a final concentration of 9.2×10e5 cells/mL in complete media (RPMI, 10% FBS, 1.5 g/L sodium bicarbonate, 10 mM Hepes, 1 mM sodium pyruvate, 4.5 g/L glucose) and pre-treated with compound curves for 30 minutes at 37° C., 5% CO2. Pre-treated cells plus compounds were transferred to washed anti-CD3 coated plates. Soluble anti-CD28 (CD28.2 eBiosciences) was added to each well at a final concentration of 1 μg/mL. The cells were placed in a humidified 37° C. incubator with 5% CO2 for 48 hours and IL-2 release was measured using a commercial ELISA (BD Bioscience catalog #555190). Controls included unstimulated cells and vehicle alone. EC50 values (50% IL-2 release in the presence of compound as compared to vehicle treated controls) were calculated from dose response compound curves using GraphPad Prism Software.

[2] = tested on: Human PBMCs; test: CD3/CD28 mediated PBMC proliferation assay; type: cell-based; settings: proliferation of human PBMCs stimulated with anti-CD3 and anti-CD28, 72 hours, Cell Titer-Glo
Procedure: Inhibition of cellular ITK was assessed by measuring proliferation of PBMCs following stimulation with anti-CD3 and anti-CD28 antibodies. Individual wells of 96 well tissue culture plates were coated with 50 μL of 5 μg/mL anti-CD3 (OKT3, eBiosciences) for 2 hours at 37° C. Human PBMCs (Stemcell Technologies catalog #70025.3) were plated in 96-well plates at a final concentration of 9.2×10e5 cells/mL in complete media (RPMI, 10% heat inactivated FBS, 55 uM β-mercaptoethanol) and pre-treated with compound curves for 30 minutes at 37° C., 5% CO2. Pre-treated cells plus compounds were transferred to washed anti-CD3 coated plates. Soluble anti-CD28 (CD28.2 eBiosciences) was added to each well at a final concentration of 2 μg/mL. The cells were placed in a humidified 37° C. incubator with 5% CO2 for 72 hours and metabolic viability was measured by quantification of ATP levels with Cell Titer-Glo (Promega catalog # G9242). Controls included unstimulated cells and vehicle alone. EC50 values (50% proliferation in the presence of compound as compared to vehicle treated controls) were calculated from dose response compound curves using GraphPad Prism Software.

| EC50 [1] [nM] | SMILES | EC50 [2] [nM] |
| --- | --- | --- |
| 10 to 100 | C=CC(=O)Nc1cccc(-n2c(NC(=O)c3cccs3)nc3cc(CN[C@@H](C)C(C)(C)C)ccc32)c1 [Compound 13] | 10 to 100 |
| < 10 | C=CC(=O)N(C)[C@H]1C[C@@H](n2c(NC(=O)c3ccc(C(F)F)s3)nc3cc(CN[C@@H](C)C(C)(C)C)ccc32)C1 [Compound 6] | 10 to 100 |
| > 100 | C=CC(=O)N[C@H]1CC[C@@H](n2c(NC(=O)c3ccc(C#N)cc3)nc3cc(CN[C@@H](C)C(C)(C)C)ccc32)CC1 [Compound 54] | > 100 |
| < 10 | C=CC(=O)Nc1cccc(-n2c(NC(=O)c3ccno3)nc3cc(CN4CCOCC4)ccc32)c1 [Compound 76] | 10 to 100 |
| 10 to 100 | C=CC(=O)Nc1cccc(-n2c(NC(=O)c3ccc(C(F)F)s3)nc3cc(CN(C(C)=O)[C@@H](C)C(C)(C)C)ccc32)c1 [Compound 36] | 10 to 100 |
| 10 to 100 | C=CC(=O)Nc1cccc(-n2c(NC(=O)c3ccc(F)cc3)nc3cc(CN[C@@H](C)C(C)(C)C)ccc32)c1 [Compound 20] | > 100 |

The remaining lines, values behind:

| SMILES | EC50 [1] [nM] | EC50 [2] [nM] |
| --- | --- | --- |
| C=CC(=O)Nc1cccc(-n2c(NC(=O)c3cccc(Cl)c3)nc3cc(CN[C@@H](C)C(C)(C)C)ccc32)c1 [Compound 15] | 10 to 100 | 10 to 100 |
| C=CC(=O)Nc1cccc(-n2c(NC(=O)c3ccc(C(F)F)s3)nc3cc(CNC4CCCCC4)ccc32)c1 [Compound 14] | < 10 | 10 to 100 |
| C=C(F)C(=O)Nc1cccc(-n2c(NC(=O)c3ccc(C(F)F)s3)nc3cc(CN[C@@H](C)C(C)(C)C)ccc32)c1 [Compound 84] | 10 to 100 | 10 to 100 |
| C=CC(=O)Nc1cccc(-n2c(NC(=O)c3ccc(C(F)F)s3)nc3cc(CN[C@H]4CC[C@@H](O)CC4)ccc32)c1 [Compound 35] | 10 to 100 | < 10 |
| C=CC(=O)Nc1cccc(-n2c(NC(=O)c3ccc(C(F)F)s3)nc3cc(CN[C@@H](C)CC)ccc32)c1 [Compound 21] | 10 to 100 | < 10 |
